BindingDB's records for doi:10.7270/Q2T72HDT (Dupont Pharmaceuticals, 1995)

Tests used:
[1] = target: T1, Sterol O-acyltransferase 1 (Rattus norvegicus, UniProt O70536); test: ChEBML_28360
T1 sequence (O70536 whole entry): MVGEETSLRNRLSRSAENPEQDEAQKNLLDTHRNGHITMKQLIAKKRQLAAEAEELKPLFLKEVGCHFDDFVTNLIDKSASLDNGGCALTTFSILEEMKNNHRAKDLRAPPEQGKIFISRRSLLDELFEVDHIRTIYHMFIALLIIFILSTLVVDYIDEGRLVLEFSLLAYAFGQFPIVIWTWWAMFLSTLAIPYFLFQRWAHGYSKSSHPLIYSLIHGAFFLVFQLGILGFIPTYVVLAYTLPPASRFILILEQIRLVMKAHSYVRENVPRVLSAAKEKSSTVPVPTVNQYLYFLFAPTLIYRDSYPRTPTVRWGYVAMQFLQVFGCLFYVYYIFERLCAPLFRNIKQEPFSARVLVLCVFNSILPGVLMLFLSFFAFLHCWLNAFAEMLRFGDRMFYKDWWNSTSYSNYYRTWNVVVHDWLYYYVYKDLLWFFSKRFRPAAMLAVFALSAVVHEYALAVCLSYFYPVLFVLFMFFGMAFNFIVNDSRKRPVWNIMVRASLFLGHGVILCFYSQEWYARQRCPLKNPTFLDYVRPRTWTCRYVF
Description: In vitro inhibition of Acyl coenzyme A:cholesterol acyltransferase (ACAT) in rat hepatic microsomes

[2] = target: T2, Sterol O-acyltransferase 1 (Mus musculus, UniProt Q61263); test: ChEBML_28026
T2 sequence (Q61263 whole entry): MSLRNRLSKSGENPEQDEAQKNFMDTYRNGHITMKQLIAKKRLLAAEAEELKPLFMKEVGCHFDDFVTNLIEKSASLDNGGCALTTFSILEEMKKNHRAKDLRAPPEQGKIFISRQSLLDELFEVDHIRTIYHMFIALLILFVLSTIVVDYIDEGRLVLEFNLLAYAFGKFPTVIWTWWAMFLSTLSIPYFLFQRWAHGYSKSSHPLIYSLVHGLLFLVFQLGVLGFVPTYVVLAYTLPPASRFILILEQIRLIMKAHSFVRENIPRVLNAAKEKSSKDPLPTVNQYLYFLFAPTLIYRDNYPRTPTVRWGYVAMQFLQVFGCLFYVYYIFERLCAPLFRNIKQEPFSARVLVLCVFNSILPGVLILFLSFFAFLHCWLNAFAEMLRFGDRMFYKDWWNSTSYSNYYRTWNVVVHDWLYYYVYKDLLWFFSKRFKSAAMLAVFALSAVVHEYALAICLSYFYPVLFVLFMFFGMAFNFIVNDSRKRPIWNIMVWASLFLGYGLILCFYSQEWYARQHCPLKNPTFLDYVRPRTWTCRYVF
Description: Inhibition of Acyl coenzyme A:cholesterol acyltransferase (ACAT) in J774 Macrophage cell culture

Structure (SMILES)	IC50 [1]	IC50 [2]
c1ccc(-c2nc(SCCCCCSCc3ccccn3)[nH]c2-c2ccccc2)cc1	310 nM	3930 nM
O=C(Nc1ccc(F)cc1F)N(CCCCCSc1nc(-c2ccccc2)c(-c2ccccc2)[nH]1)CCc1ccccn1	80 nM	2440 nM
COc1ccc(-c2nc(SCCCCCN(CCCCCSc3nc(-c4ccc(OC)cc4)c(-c4ccc(OC)cc4)[nH]3)C(=O)NC(C)C)[nH]c2-c2ccc(OC)cc2)cc1	90 nM	10 nM
CN(C)c1ccc(-c2nc(SCCOCCSc3[nH]cnc4ncnc3-4)[nH]c2-c2ccc(N(C)C)cc2)cc1	2040 nM	2990 nM
COc1ccc(-c2nc(SCCCCCN(CCc3nn[nH]n3)C(=O)NC(C)C)[nH]c2-c2ccc(OC)cc2)cc1	–	5500 nM
CC(C)NC(=O)N(CCCCCSc1nc(-c2ccccc2)c(-c2ccccc2)[nH]1)CCCCCSc1nc(-c2ccc(N(C)C)cc2)c(-c2ccc(N(C)C)cc2)[nH]1	30 nM	60 nM
CC(C)NC(=O)N(CCCCCSc1nc(-c2ccccc2)c(-c2ccccc2)[nH]1)CCc1ccccn1	190 nM	3050 nM
COc1ccc(-c2nc(SCCCCCN(CCc3ccccn3)C(=O)NC(C)C)[nH]c2-c2ccc(OC)cc2)cc1	260 nM	90 nM
O=C(Nc1ccc(F)cc1F)N(CCCCCSc1nc(-c2ccccc2)c(-c2ccccc2)[nH]1)c1ccccn1	660 nM	790 nM
Cc1nc2ccccc2n1CCCSCCCSc1nc(-c2ccccc2)c(-c2ccccc2)[nH]1	250 nM	7270 nM
CC(C)NC(=O)N(CCCCCSc1nc(-c2ccccc2)c(-c2ccccc2)[nH]1)c1ccccn1	100 nM	940 nM
COc1ccc(-c2nc(SCCCCCN(CCCn3ccnc3)C(=O)NC(C)C)[nH]c2-c2ccc(OC)cc2)cc1	–	5500 nM
c1ccc(-c2nc(SCCCSCCCSc3nc(-c4ccccc4)c(-c4ccccc4)[nH]3)[nH]c2-c2ccccc2)cc1	–	7960 nM
COc1ccc(-c2nc(SCCCCCN(Cc3ccccn3)C(=O)NC(C)C)[nH]c2-c2ccc(OC)cc2)cc1	6230 nM	60 nM
COc1ccc(-c2nc(SCCOCCSc3nc(-c4ccccc4)c(-c4ccccc4)[nH]3)[nH]c2-c2ccc(OC)cc2)cc1	–	3870 nM
CN(C)c1ccc(-c2nc(SCCCCCN(CCCCCSc3nc(-c4ccccc4)c(-c4ccccc4)[nH]3)C(=O)Nc3ccc(F)cc3F)[nH]c2-c2ccc(N(C)C)cc2)cc1	3 nM	450 nM
COc1ccc(-c2nc(SCCCCCN(CCCCCSc3nc(-c4ccccc4)c(-c4ccccc4)[nH]3)C(=O)NC(C)C)[nH]c2-c2ccc(OC)cc2)cc1	90 nM	100 nM
COc1ccc(-c2nc(SCCCCCN(Cc3ccccn3)C(=O)Nc3ccc(F)cc3F)[nH]c2-c2ccc(OC)cc2)cc1	–	190 nM
COc1ccc(-c2nc(SCCOCCn3c(C)nc4ccccc43)[nH]c2-c2ccc(OC)cc2)cc1	–	3430 nM
c1ccc(-c2nc(SCCCCCOCCc3ccccn3)[nH]c2-c2ccccc2)cc1	–	3920 nM
CN(C)c1ccc(-c2nc(SCCOCCSc3nc(-c4ccc(N(C)C)cc4)c(-c4ccc(N(C)C)cc4)[nH]3)[nH]c2-c2ccc(N(C)C)cc2)cc1	134 nM	370 nM
COc1ccc(-c2nc(SCCCCCN(CCc3ccccn3)C(=O)Nc3ccc(F)cc3F)[nH]c2-c2ccc(OC)cc2)cc1	300 nM	690 nM
c1ccc(-c2nc(SCCOCCSc3nc(-c4ccccc4)c(-c4ccccc4)[nH]3)[nH]c2-c2ccccc2)cc1	26 nM	6550 nM
